Reference: patent US20220235006A1, “PYRIDINE DERIVATIVES AS TMEM16A MODULATORS FOR USE IN THE TREATMENT OF RESPIRATORY CONDITIONS” (TMEM16A LIMITED, priority 2019, published 2022)
pEC50: −log10 of the molar value. ≈ marks a conversion by molar mass, not a printed value.

Experiments:
[1] = biological target: T1, human TMEM16A (TMEM16Aabc variant) (Homo sapiens, UniProt Q5XXA6, DEL476-501); assay: Automated whole-cell patch clamp (Qpatch) TMEM16A potentiator assay in recombinant FRT cells; assay type: cell-based; settings: for activation at 3.33 µM: percentage increase of baseline TMEM16A current, minimum n = 2, read-out: % Potentiation @ 3.33 uM Avg; for pEC50: minimum n = 2
T1 sequence (Q5XXA6 with tags, fused parts or gaps isoform Q5XXA6-5 DEL539-564): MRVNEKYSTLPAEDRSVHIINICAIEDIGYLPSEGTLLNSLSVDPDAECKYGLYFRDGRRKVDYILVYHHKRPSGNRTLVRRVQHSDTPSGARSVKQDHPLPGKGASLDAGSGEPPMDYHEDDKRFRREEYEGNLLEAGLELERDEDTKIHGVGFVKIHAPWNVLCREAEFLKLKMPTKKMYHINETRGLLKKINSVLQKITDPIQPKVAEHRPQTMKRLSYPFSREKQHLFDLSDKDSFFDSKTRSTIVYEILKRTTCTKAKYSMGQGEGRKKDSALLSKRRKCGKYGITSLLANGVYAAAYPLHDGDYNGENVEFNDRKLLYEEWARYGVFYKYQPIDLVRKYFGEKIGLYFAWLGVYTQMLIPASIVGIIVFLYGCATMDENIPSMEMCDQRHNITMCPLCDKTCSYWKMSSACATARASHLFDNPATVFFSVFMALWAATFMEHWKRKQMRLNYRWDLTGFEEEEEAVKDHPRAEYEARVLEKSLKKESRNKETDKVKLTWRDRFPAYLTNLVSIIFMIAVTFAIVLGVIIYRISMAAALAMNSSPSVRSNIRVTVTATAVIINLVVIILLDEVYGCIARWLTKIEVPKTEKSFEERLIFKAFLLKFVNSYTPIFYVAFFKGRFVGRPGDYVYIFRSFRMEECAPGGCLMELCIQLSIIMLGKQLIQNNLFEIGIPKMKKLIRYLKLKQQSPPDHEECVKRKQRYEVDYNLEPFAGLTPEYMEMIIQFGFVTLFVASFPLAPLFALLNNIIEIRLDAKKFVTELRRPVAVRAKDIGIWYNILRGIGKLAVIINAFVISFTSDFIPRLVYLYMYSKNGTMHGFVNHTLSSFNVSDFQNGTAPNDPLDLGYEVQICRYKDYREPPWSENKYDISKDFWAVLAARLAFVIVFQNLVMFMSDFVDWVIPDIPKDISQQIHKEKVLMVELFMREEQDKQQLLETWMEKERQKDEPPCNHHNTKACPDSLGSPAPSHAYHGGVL
Summary of the method: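 FRT cells stably expressing human TMEM16Aabc, whole-cell automated patch clamp with intracellular Ca2+ buffered for ~20% maximal current (EC20). Held at −70 mV, step to +70 mV/ramp at 0.05 Hz, cumulative compound additions of 5 min each. Peak +70 mV current increase expressed as % potentiation of baseline.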

[2] = Kinetic solubility determination (high throughput); assay type: physicochemical; settings: kinetic from dmso stock, sterile water, 5% DMSO, room temperature

SMILES | activation at 3.33 µM [1] | pEC50 [1] | solubility kinetic at 90 min [2]
CC(C)(CO)c1cc(Cl)c(CC(=O)Nc2ccnc(C(=O)NC3(C(F)(F)F)CC3)c2)cc1O [Example 14, 4-[[2-[2-Chloro-5-hydroxy-4-(2-hydroxy-1,1-dimethyl-ethyl)phenyl]acetyl]amino]-N-[1-(trifluoromethyl)cyclopropyl]pyridine-2-carboxamide] | 490% | 7.48 | 90 µg/mL (≈ 185 µM)
CC(C)(C#N)NC(=O)c1cc(NC(=O)Cc2ccc(C(C)(C)C)c(O)c2)ccn1 [93.4 of PCT/GB2019/050209, reference compound] | 476% | 7.19 | 37 µg/mL (≈ 93.8 µM)
Cc1cc(C(C)(C)CO)c(O)cc1CC(=O)Nc1ccnc(C(=O)NC2(C(F)(F)F)CC2)c1 [Example 14.1, 4-[[2-[5-Hydroxy-4-(2-hydroxy-1,1-dimethyl-ethyl)-2-methyl-phenyl]acetyl]amino]-N-[1-(trifluoromethyl)cyclopropyl]pyridine-2-carboxamide] | 233% | 7.35 | 154 µg/mL (≈ 331 µM)
CC(C)(O)c1cc(F)c(CC(=O)Nc2ccnc(C(=O)NC3(C(F)(F)F)CC3)c2)cc1O [Example 2, 4-[[2-[2-Fluoro-5-hydroxy-4-(1-hydroxy-1-methyl-ethyl)phenyl]acetyl]amino]-N-[1-(trifluoromethyl)cyclopropyl]pyridine-2-carboxamide] | 243% | 7.19 | 152 µg/mL (≈ 334 µM)
CC(C)(CCO)c1cc(F)c(CC(=O)Nc2ccnc(C(=O)NC3(C(F)(F)F)CC3)c2)cc1O [Example 11, 4-[[2-[2-Fluoro-5-hydroxy-4-(3-hydroxy-1,1-dimethyl-propyl)phenyl]acetyl]amino]-N-[1-(trifluoromethyl)cyclopropyl]pyridine-2-carboxamide] | 208% | 7.37 | 120 µg/mL (≈ 248 µM)
CC(C#N)NC(=O)c1cc(NC(=O)Cc2cc(O)c(C(C)(C)C)cc2F)ccn1 (centres unmarked) [Example 1.3] | 380% | 6.98 | 35 µg/mL (≈ 87.8 µM)
CC(C)(CO)c1cc(Cl)c(CC(=O)Nc2ccnc(C(=O)NC3(C(F)F)CC3)c2)cc1O [Example 15.3, 4-[[2-[2-Chloro-5-hydroxy-4-(2-hydroxy-1,1-dimethyl-ethyl)phenyl]acetyl]amino]-N-[1-(difluoromethyl)cyclopropyl]pyridine-2-carboxamide] | 250% | 7.44 | 164 µg/mL (≈ 351 µM)
CC(C)(CO)c1cc(F)c(CC(=O)Nc2ccnc(C(=O)NC3(C(F)(F)F)CC3)c2)cc1O [Example 2.6, 4-[[2-[2-Fluoro-5-hydroxy-4-(2-hydroxy-1,1-dimethyl-ethyl)phenyl]acetyl]amino]-N-[1-(trifluoromethyl)cyclopropyl]pyridine-2-carboxamide] | 270% | 7.52 | 142 µg/mL (≈ 302 µM)
O=C(Cc1cc(O)c(C2(CO)CCC2)cc1F)Nc1ccnc(C(=O)NC2(C(F)(F)F)CC2)c1 [Example 2.13, 4-[[2-[2-Fluoro-5-hydroxy-4-[1-(hydroxymethyl)cyclobutyl]phenyl]acetyl]amino]-N-[1-(trifluoromethyl)cyclopropyl]pyridine-2-carboxamide] | 339% | 7.43 | 67 µg/mL (≈ 139 µM)
O=C(Cc1cc(O)c(C(CO)C(F)(F)F)cc1F)Nc1ccnc(C(=O)NC2(C(F)(F)F)CC2)c1 (centres unmarked) [Example 17, 4-[[2-[2-Fluoro-5-hydroxy-4-[2,2,2-trifluoro-1-(hydroxymethyl)ethyl]phenyl]acetyl]amino]N-[1-(trifluoromethyl)cyclopropyl]pyridine-2-carboxamide] | 374% | 7.03 | 292 µg/mL (≈ 573 µM)
CC(C)(C)NC(=O)c1cc(NC(=O)Cc2cc(O)c(C(C)(C)C)cc2F)ccn1 [91 of PCT/GB2019/050209, reference compound] |  | 7.26 | 10 µg/mL (≈ 24.9 µM)
CCC(C)(O)c1cc(F)c(CC(=O)Nc2ccnc(C(=O)NC3(C(F)(F)F)CC3)c2)cc1O (centres unmarked) [Example 2.11, 4-[[2-[2-Fluoro-5-hydroxy-4-(1-hydroxy-1-methyl-propyl)phenyl]acetyl]amino]-N-[1-(trifluoromethyl)cyclopropyl]pyridine-2-carboxamide] | 390% | 7.19 | 116 µg/mL (≈ 247 µM)
